# Data from patent US20260262643A1, “HERBICIDAL BENZOXAZINES” (FMC CORPORATION, priority 2022, published 2026).
# Tests used:
# blackgrass [1] = test: Test A preemergence; assay type: in vivo, Alopecurus myosuroides
# In short: (§1)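 Loam/sand soil; pre-em directed soil spray at planting, post-em spray at 1–2 leaf (2–10 cm). Compound in non-phytotoxic solvent + surfactant. Greenhouse 10 d; visual injury vs untreated, 0 = no effect, 100 = complete control.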
# corn [2] = test: Test A preemergence; assay type: in vivo, Zea mays
# In short: as §1
# foxtail, giant [3] = test: Test A preemergence; assay type: in vivo, Setaria faberi
# In short: as §1
# goosegrass [4] = test: Test A preemergence; assay type: in vivo, Eleusine indica
# In short: as §1
# kochia [5] = test: Test A preemergence; assay type: in vivo, Bassia scoparia
# In short: as §1
# oat, wild [6] = test: Test A preemergence; assay type: in vivo, Avena fatua
# In short: as §1
# pigweed, palmer [7] = test: Test A preemergence; assay type: in vivo, Amaranthus palmeri
# In short: as §1
# ragweed [8] = test: Test A preemergence; assay type: in vivo, Ambrosia artemisiifolia
# In short: as §1
# ryegrass, Italian [9] = test: Test A preemergence; assay type: in vivo, Lolium multiflorum
# In short: as §1
# soybean [10] = test: Test A preemergence; assay type: in vivo, Glycine max
# In short: as §1
# wheat [11] = test: Test A preemergence; assay type: in vivo, Triticum aestivum
# In short: as §1
# blackgrass [12] = test: Test A postemergence; assay type: in vivo, Alopecurus myosuroides; conditions: postemergence, 10 days
# In short: as §1
# corn [13] = test: Test A postemergence; assay type: in vivo, Zea mays; conditions: postemergence, 10 days
# In short: as §1
# foxtail, giant [14] = test: Test A postemergence; assay type: in vivo, Setaria faberi; conditions: postemergence, 10 days
# In short: as §1
# goosegrass [15] = test: Test A postemergence; assay type: in vivo, Eleusine indica; conditions: postemergence, 10 days
# In short: as §1
# kochia [16] = test: Test A postemergence; assay type: in vivo, Bassia scoparia; conditions: postemergence, 10 days
# In short: as §1
# oat, wild [17] = test: Test A postemergence; assay type: in vivo, Avena fatua; conditions: postemergence, 10 days
# In short: as §1
# pigweed, palmer [18] = test: Test A postemergence; assay type: in vivo, Amaranthus palmeri; conditions: postemergence, 10 days
# In short: as §1
# ragweed [19] = test: Test A postemergence; assay type: in vivo, Ambrosia artemisiifolia; conditions: postemergence, 10 days
# In short: as §1
# ryegrass, Italian [20] = test: Test A postemergence; assay type: in vivo, Lolium multiflorum; conditions: postemergence, 10 days
# In short: as §1
# soybean [21] = test: Test A postemergence; assay type: in vivo, Glycine max; conditions: postemergence, 10 days
# In short: as §1
# wheat [22] = test: Test A postemergence; assay type: in vivo, Triticum aestivum; conditions: postemergence, 10 days
# In short: as §1
# galium = test: Test A postemergence; assay type: in vivo, Galium aparine; conditions: postemergence, 10 days
# In short: as §1
# horseweed = test: Test A postemergence; assay type: in vivo, Erigeron canadensis; conditions: postemergence, 10 days
# In short: as §1
# barnyardgrass = test: Test B flooded paddy test; assay type: in vivo, Echinochloa crus-galli; conditions: 250 g ai/ha, Flood, 13 days, 0 to 100 scale (0 no effect, 100 complete control)
# In short: (§2)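 Visual scores from 0 (no effect) to 100 (complete kill) were assigned 13 days after treatment by comparison with controls. Seedlings had been treated at two leaves by adding compound to floodwater standing 3 cm deep, kept at that level in the greenhouse.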
# ducksalad = test: Test B flooded paddy test; assay type: in vivo, Heteranthera limosa; conditions: 250 g ai/ha, Flood, 13 days, 0 to 100 scale (0 no effect, 100 complete control)
# In short: as §2
# rice = test: Test B flooded paddy test; assay type: in vivo, Oryza sativa; conditions: 250 g ai/ha, Flood, 13 days, 0 to 100 scale (0 no effect, 100 complete control)
# In short: as §2
# sedge, umbrella = test: Test B flooded paddy test; assay type: in vivo, Cyperus difformis; conditions: 250 g ai/ha, Flood, 13 days, 0 to 100 scale (0 no effect, 100 complete control)
# In short: as §2
# [23] = 125 g ai/ha, visual injury after 10 days, 0 to 100 scale, 0 is no effect, 100 is complete control
# [24] = 500 g ai/ha, 0 to 100 scale (0 no effect, 100 complete control), 10 days
# [25] = 125 g ai/ha, 0 to 100 scale, 0 no effect, 100 complete control
# [26] = 500 g ai/ha, visual injury, 0 to 100 scale (0 no effect, 100 complete control)
compound,measurement,setting,value
CCc1ncn(-c2ccc(C)c(C(=O)N3C[C@H](C)Oc4c(C)cccc43)c2)n1 [Compound 98],"Plant response rating, Blackgrass",blackgrass [1]; [23],60
same,"Plant response rating, Blackgrass",blackgrass [1]; [24],80
same,"Plant response rating, Corn",corn [2]; [23],10
same,"Plant response rating, Corn",corn [2]; [24],30
same,"Plant response rating, Foxtail, Giant","foxtail, giant [3]; [23]",100
same,"Plant response rating, Foxtail, Giant","foxtail, giant [3]; [24]",100
same,"Plant response rating, Goosegrass",goosegrass [4]; [23],100
same,"Plant response rating, Goosegrass",goosegrass [4]; [24],100
same,"Plant response rating, Kochia",kochia [5]; [23],80
same,"Plant response rating, Kochia",kochia [5]; [24],100
same,"Plant response rating, Oat, Wild","oat, wild [6]; [23]",70
same,"Plant response rating, Oat, Wild","oat, wild [6]; [24]",90
same,"Plant response rating, Pigweed, Palmer","pigweed, palmer [7]; [23]",100
same,"Plant response rating, Pigweed, Palmer","pigweed, palmer [7]; [24]",100
same,"Plant response rating, Ragweed",ragweed [8]; [23],30
same,"Plant response rating, Ragweed",ragweed [8]; [24],90
same,"Plant response rating, Ryegrass, Italian","ryegrass, Italian [9]; [23]",100
same,"Plant response rating, Ryegrass, Italian","ryegrass, Italian [9]; [24]",100
same,"Plant response rating, Soybean",soybean [10]; [23],90
same,"Plant response rating, Soybean",soybean [10]; [24],100
same,"Plant response rating, Wheat",wheat [11]; [23],50
same,"Plant response rating, Wheat",wheat [11]; [24],60
same,Blackgrass plant response rating,blackgrass [12]; [25],70
same,"Plant response rating, Blackgrass",blackgrass [12]; [26],90
same,Corn plant response rating,corn [13]; [25],50
same,"Plant response rating, Corn",corn [13]; [26],90
same,"Foxtail, Giant plant response rating","foxtail, giant [14]; [25]",90
same,"Plant response rating, Foxtail, Giant","foxtail, giant [14]; [26]",90
same,Goosegrass plant response rating,goosegrass [15]; [25],80
same,"Plant response rating, Goosegrass",goosegrass [15]; [26],100
same,Kochia plant response rating,kochia [16]; [25],80
same,"Plant response rating, Kochia",kochia [16]; [26],90
same,"Oat, Wild plant response rating","oat, wild [17]; [25]",80
same,"Plant response rating, Oat, Wild","oat, wild [17]; [26]",90
same,"Pigweed, Palmer plant response rating","pigweed, palmer [18]; [25]",90
same,"Plant response rating, Pigweed, Palmer","pigweed, palmer [18]; [26]",100
same,Ragweed plant response rating,ragweed [19]; [25],60
same,"Plant response rating, Ragweed",ragweed [19]; [26],60
same,"Ryegrass, Italian plant response rating","ryegrass, Italian [20]; [25]",70
same,"Plant response rating, Ryegrass, Italian","ryegrass, Italian [20]; [26]",100
same,Soybean plant response rating,soybean [21]; [25],100
same,"Plant response rating, Soybean",soybean [21]; [26],100
same,Wheat plant response rating,wheat [22]; [25],80
same,"Plant response rating, Wheat",wheat [22]; [26],90
same,Galium plant response rating,galium; [25],100
same,"Plant response rating, Galium",galium; [26],100
same,Horseweed plant response rating,horseweed; [25],30
same,"Plant response rating, Horseweed",horseweed; [26],60
same,"Plant response rating, Barnyardgrass",barnyardgrass,45
same,"Plant response rating, Ducksalad",ducksalad,65
same,"Plant response rating, Rice",rice,30
same,"Plant response rating, Sedge, Umbrella","sedge, umbrella",90
